Assay results published in US9040663B2, “Melanocortin receptor-specific peptides” (AstraZeneca AB, priority 2009, dated 2015).
Read-outs that look alike come from different tables or passages of the source.

Tests used:
hMC4-R [1] = target: T1, hMC4-R (Homo sapiens (Human), UniProt P32245); assay: High and low density hMC4-R functional assay (cAMP, HEK293-T-REx-MC4-R cells); type: cell-based; conditions: for Emax: NDP-α-MSH = 100%, read-out: Intrinsic Activity (%)
Experimental: The cells were then dispensed into 96-well plates (BD 353916) in 198 μL (about 5×10^4) cells/well and incubated for 10 minutes at 37° C. The compound to be tested was diluted with DMSO to a final concentration of 1 mM. […] 120 μL of the 1 mM compound stock was pipetted in the second column on the plate. […] All assay samples were run in duplicate (i.e. each sample was in two low dox and two high dox plates, respectively). The plates were gently shaken and incubated for 15 minutes at 37° C.

hMC4-R [2] = target: T1, hMC4-R; assay: Competitive inhibition binding assay using [I125]-NDP-α-MSH, hMC4-R; conditions: membranes of HEK-293 cells expressing recombinant hMC4-R, read-out: MC4-R Ki
Experimental: 7.1 Competitive Inhibition Assay using [I^125]-NDP-α-MSH.
A competitive inhibition binding assay was performed for exemplified peptides according to the invention using membrane homogenates prepared from HEK-293 cells that express recombinant hMC4-R, hMC3-R, or hMC5-R, and from B-16 mouse melanoma cells (containing endogenous MC1-R). In some instances, HEK-293 cells that express recombinant hMC1-R were employed. Assays were performed in 96 well GF/B Millipore multiscreen filtration plates (MAFB NOB10) pre-coated with 0.5% bovine serum albumin (Fraction V). Membrane homogenates were incubated with 0.2 nM (for hMC4-R) 0.4 nM (for MC3-R and MC5-R) or 0.1 nM (for mouse B16 MC1-R or hMC1-R) [I^125]-NDP-α-MSH (Perkin Elmer) and increasing concentrations of test peptides of the present invention in buffer containing 25 mM HEPES buffer (pH 7.5) with 100 mM NaCl, 2 mM CaCl2, 2 mM MgCl2, 0.3 mM 1,10-phenanthroline, and 0.2% bovine serum albumin. After incubation for 60 minutes at 37° C., the assay mixture was filtered and the membranes washed three times with ice-cold buffer. Filters were dried and counted in a gamma counter for bound radioactivity. […] Maximal specific binding (100%) was defined as the difference in radioactivity (cpm) bound to cell membranes in the absence and presence of 1 μM NDP-α-MSH. […] Each assay was conducted in triplicate and the actual mean values are described, with results less than 0% reported as 0%. Ki values for test peptides of the present invention were determined using Graph-Pad Prism® curve-fitting software.

[3] = 0.1 ng/mL Doxycycline (low density hMC4-R system)
[4] = 10 ng/mL Doxycycline (high density hMC4-R system)

T1 sequence (P32245 whole entry): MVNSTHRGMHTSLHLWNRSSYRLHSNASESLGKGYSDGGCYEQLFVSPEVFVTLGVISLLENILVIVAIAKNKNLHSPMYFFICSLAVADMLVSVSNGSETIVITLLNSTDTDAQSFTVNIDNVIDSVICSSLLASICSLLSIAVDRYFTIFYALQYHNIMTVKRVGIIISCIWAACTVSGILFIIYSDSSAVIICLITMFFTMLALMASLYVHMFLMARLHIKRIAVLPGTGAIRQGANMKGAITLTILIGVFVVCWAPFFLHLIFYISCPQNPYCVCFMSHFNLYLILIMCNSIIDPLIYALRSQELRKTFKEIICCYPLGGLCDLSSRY

| Emax (hMC4-R [1]; [3]) [%] | EC50 (hMC4-R [1]; [4]) [pM] | Emax (hMC4-R [1]; [4]) [%] | Ki (hMC4-R [2]) [pM] | EC50 (hMC4-R [1]; [3]) [pM] | Compound |
| --- | --- | --- | --- | --- | --- |
| 0.5 | 750 | 53 | 60 | – | CC(=O)N[C@@H](CCCNC(=N)N)C(=O)N[C@H]1CCC(=O)NCCC[C@@H](C(N)=O)NC(=O)[C@H](Cc2c[nH]c3ccccc23)NC(=O)[C@H](CCCNC(=N)N)NC(=O)[C@@H](Cc2ccc(C(F)(F)F)cc2)NC(=O)[C@H](CCN)NC1=O [Example 20, Ac-Arg-cyclo(Glu-Dab-D-Phe(4-CF3)-Arg-Trp-Orn)-NH2] |
| 8 | 500 | 97 | 85 | – | CC(=O)N[C@@H](CCCNC(=N)N)C(=O)N[C@H]1CCC(=O)NCCC[C@@H](C(N)=O)NC(=O)[C@H](Cc2c[nH]c3ccccc23)NC(=O)[C@H](CCCNC(=N)N)NC(=O)[C@@H](Cc2ccc(C)cc2C)NC(=O)[C@H](CCN)NC1=O [Example 21, Ac-Arg-cyclo(Glu-Dab-D-Phe(2,4-diMe)-Arg-Trp-Orn)-NH2] |
| 78 | 200 | 93 | 11000 | 3000 | CC(=O)N[C@@H](CCCNC(=N)N)C(=O)N[C@H]1CCC(=O)NCCC[C@@H](C(N)=O)NC(=O)[C@H](Cc2c[nH]c3ccccc23)NC(=O)[C@H](CCCNC(=N)N)NC(=O)[C@@H](Cc2ccccc2[N+](=O)[O-])NC(=O)[C@H](CCN)NC1=O [Example 22, Ac-Arg-cyclo(Glu-Dab-D-Phe(2-NO2)-Arg-Trp-Orn)-NH2] |
| 17 | 550 | 95 | 700 | 2000 | CC(=O)N[C@@H](CCCNC(=N)N)C(=O)N[C@H]1CCC(=O)NCCC[C@@H](C(N)=O)NC(=O)[C@H](Cc2c[nH]c3ccccc23)NC(=O)[C@H](CCCNC(=N)N)NC(=O)[C@@H](Cc2cccc([N+](=O)[O-])c2)NC(=O)[C@H](CCN)NC1=O [Example 23, Ac-Arg-cyclo(Glu-Dab-D-Phe(3-NO2)-Arg-Trp-Orn)-NH2] |
| 15 | 450 | 99 | 450 | 700 | CC(=O)N[C@@H](CCCNC(=N)N)C(=O)N[C@H]1CCC(=O)NCCC[C@@H](C(N)=O)NC(=O)[C@H](Cc2c[nH]c3ccccc23)NC(=O)[C@H](CCCNC(=N)N)NC(=O)[C@@H](Cc2ccc([N+](=O)[O-])cc2)NC(=O)[C@H](CCN)NC1=O [Example 24, Ac-Arg-cyclo(Glu-Dab-D-Phe(4-NO2)-Arg-Trp-Orn)-NH2] |
| 23 | 2000 | 94 | 35000 | 75000 | COc1ccc(C[C@H]2NC(=O)[C@H](CCN)NC(=O)[C@@H](NC(=O)[C@H](CCCNC(=N)N)NC(C)=O)CCC(=O)NCCC[C@@H](C(N)=O)NC(=O)[C@H](Cc3c[nH]c4ccccc34)NC(=O)[C@H](CCCNC(=N)N)NC2=O)cc1OC [Example 25, Ac-Arg-cyclo(Glu-Dab-D-Phe(3,4-diOMe)-Arg-Trp-Orn)-NH2] |
| 74 | 120 | 90 | 300 | 125 | CC(=O)N[C@@H](CCCNC(=N)N)C(=O)N[C@H]1CCC(=O)NCCC[C@@H](C(N)=O)NC(=O)[C@H](Cc2c[nH]c3ccccc23)NC(=O)[C@H](CCCNC(=N)N)NC(=O)[C@@H](Cc2ccc(F)c(F)c2)NC(=O)[C@H](CCN)NC1=O [Example 26, Ac-Arg-cyclo(Glu-Dab-D-Phe(3,4-diF)-Arg-Trp-Orn)-NH2] |
| 37 | 330 | 97 | 667 | 700 | CC(=O)N[C@@H](CCCNC(=N)N)C(=O)N[C@H]1CCC(=O)NCCC[C@@H](C(N)=O)NC(=O)[C@H](Cc2c[nH]c3ccccc23)NC(=O)[C@H](CCCNC(=N)N)NC(=O)[C@@H](Cc2cc(F)c(F)c(F)c2)NC(=O)[C@H](CCN)NC1=O [Example 27, Ac-Arg-cyclo(Glu-Dab-D-Phe(3,4,5-triF)-Arg-Trp-Orn)-NH2] |
| 35 | 600 | 94 | 48000 | 29000 | CC(=O)N[C@@H](CCCNC(=N)N)C(=O)N[C@H]1CCC(=O)NCCC[C@@H](C(N)=O)NC(=O)[C@H](Cc2c[nH]c3ccccc23)NC(=O)[C@H](CCCNC(=N)N)NC(=O)[C@@H](Cc2ccc(N)cc2)NC(=O)[C@H](CCN)NC1=O [Example 28, Ac-Arg-cyclo(Glu-Dab-D-Phe(4-NH2)-Arg-Trp-Orn)-NH2] |
| 14 | 800 | 100 | 500 | 3000 | CC(=O)N[C@@H](CCCNC(=N)N)C(=O)N[C@H]1CCC(=O)NCCC[C@@H](C(N)=O)NC(=O)[C@H](Cc2c[nH]c3ccccc23)NC(=O)[C@H](CCCNC(=N)N)NC(=O)[C@@H](Cc2ccc(-c3ccccc3)cc2)NC(=O)[C@H](CCN)NC1=O [Example 29, Ac-Arg-cyclo(Glu-Dab-D-Phe(4-Ph)-Arg-Trp-Orn)-NH2] |
| 2 | 25000 | 9 | 4000 | – | CC(=O)N[C@@H](CCCNC(=N)N)C(=O)N[C@H]1CCC(=O)NCCC[C@@H](C(N)=O)NC(=O)[C@H](Cc2c[nH]c3ccccc23)NC(=O)[C@H](CCCNC(=N)N)NC(=O)[C@@H](Cc2ccc(C(C)(C)C)cc2)NC(=O)[C@H](CCN)NC1=O [Example 30, Ac-Arg-cyclo(Glu-Dab-D-Phe(4-tBu)-Arg-Trp-Orn)-NH2] |
| 6 | 1000 | 84 | 10000 | – | CC(=O)N[C@@H](CCCNC(=N)N)C(=O)N[C@H]1CCC(=O)NCCC[C@@H](C(N)=O)NC(=O)[C@H](Cc2c[nH]c3ccccc23)NC(=O)[C@H](CCCNC(=N)N)NC(=O)[C@@H](Cc2cccc(Cl)c2)NC(=O)[C@H](CO)NC1=O [Example 35, Ac-Arg-cyclo(Glu-Ser-D-Phe(3-Cl)-Arg-Trp-Orn)-NH2] |
| 9 | 500 | 84 | 6000 | – | CC(=O)N[C@@H](CCCNC(=N)N)C(=O)N[C@H]1CCC(=O)NCCC[C@@H](C(N)=O)NC(=O)[C@H](Cc2c[nH]c3ccccc23)NC(=O)[C@H](CCCNC(=N)N)NC(=O)[C@@H](Cc2ccc(C#N)cc2)NC(=O)[C@H](C(C)C)NC1=O [Example 42, Ac-Arg-cyclo(Glu-Val-D-Phe(4-CN)-Arg-Trp-Orn)-NH2] |
| 94 | 85 | 94 | 1000 | 210 | CC(=O)N[C@H](CCCNC(=N)N)C(=O)N[C@H]1CCCNC(=O)CC[C@@H](C(N)=O)NC(=O)[C@H](Cc2c[nH]c3ccccc23)NC(=O)[C@H](CCCNC(=N)N)NC(=O)[C@@H](Cc2ccccc2Cl)NC(=O)[C@H](Cc2c[nH]cn2)NC1=O [Example 50, Ac-D-Arg-cyclo(Orn-His-D-Phe(2-Cl)-Arg-Trp-Glu)-NH2] |
| 56 | 75 | 92 | 250 | 75 | CC(=O)N[C@H](CCCNC(=N)N)C(=O)N[C@H]1CCCNC(=O)CC[C@@H](C(N)=O)NC(=O)[C@H](Cc2c[nH]c3ccccc23)NC(=O)[C@H](CCCNC(=N)N)NC(=O)[C@@H](Cc2ccc(F)c(F)c2)NC(=O)[C@H](Cc2c[nH]cn2)NC1=O [Example 54, Ac-D-Arg-cyclo(Orn-His-D-Phe(3,4-diF)-Arg-Trp-Glu)-NH2] |
